Measurements published in patent publication US9113629B2, “4-amino-6-(4-substituted-phenyl)-picolinates and 6-amino-2-(4-substituted-phenyl)-pyrimidine-4-carboxylates and their use as herbicides” (DOW AGROSCIENCES LLC, priority 2013, dated 2015).
Where two headings read alike, the source gives them in different places.

Key:
[1] = tested on: Key Broadleaf Weed and Crop Species; assay: Post-emergent Test II herbicidal activity (Table 5); assay type: in vivo; settings: post-emergence, 336 h, 14 days after application; for pest or weed control at 70 g/ha: application rate 70 g ai/ha; for pest or weed control at 140 g/ha: application rate 140 g ai/ha
Procedure, shortened: (§1)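 Greenhouse-grown plants at first or second true leaf stage were sprayed post-emergence with compound in acetone/DMSO-based aqueous spray containing crop oil concentrate and surfactant, at 187 L/ha, highest rate plus ½× to 1/16× dilutions. After 14 d, injury was scored visually versus untreated plants, 0 (none) to 100% (complete kill).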

[2] = tested on: Key Grass and Sedge Weeds as well as Grass Crops; assay: Post-emergent Test II herbicidal activity (Table 6); assay type: in vivo; settings: post-emergence, 336 h; for pest or weed control at 70 g/ha: 70 g ai/ha; for pest or weed control at 140 g/ha: 140 g ai/ha
Procedure, shortened: as §1

[3] = ABUTH: velvetleaf (Abutilon theophrasti), read-out: Visual Growth Reduction (%) 14 Days After Application, ABUTH
[4] = AMARE: redroot pigweed (Amaranthus retroflexus), read-out: Visual Growth Reduction (%) 14 Days After Application, AMARE
[5] = BRSNN: oilseed-rape, canola (Brassica napus), read-out: Visual Growth Reduction (%) 14 Days After Application, BRSNN
[6] = CHEAL: lambsquarters (Chenopodium album), read-out: Visual Growth Reduction (%) 14 Days After Application, CHEAL
[7] = EPHHL: wild poinsettia (Euphorbia heterophylla), read-out: Visual Growth Reduction (%) 14 Days After Application, EPHHL
[8] = HELAN: sunflower (Helianthus annuus), read-out: Visual Growth Reduction (%) 14 Days After Application, HELAN
[9] = VIOTR: wild pansy (Viola tricolor), read-out: Visual Growth Reduction (%) 14 Days After Application, VIOTR
[10] = CYPES: yellow nutsedge (Cyperus esculentus), read-out: Visual Growth Reduction (%) 14 Days After Application, CYPES
[11] = DIGSA: crabgrass (Digitaria sanguinalis), read-out: Visual Growth Reduction (%) 14 Days After Application, DIGSA
[12] = ECHCG: barnyardgrass (Echinochloa crus-galli), read-out: Visual Growth Reduction (%) 14 Days After Application, ECHCG
[13] = ORYSA: rice (Oryza sativa), crop, read-out: Visual Growth Reduction (%) 14 Days After Application, ORYSA
[14] = SETFA: giant foxtail (Setaria faberi), read-out: Visual Growth Reduction (%) 14 Days After Application, SETFA
[15] = SORVU: grain sorghum (Sorghum vulgare), read-out: Visual Growth Reduction (%) 14 Days After Application, SORVU
[16] = TRZSS (wheat, Triticum aestivum), crop, read-out: Visual Growth Reduction (%) 14 Days After Application, TRZSS
[17] = ZEAMX: maize, corn (Zea mays), crop, read-out: Visual Growth Reduction (%) 14 Days After Application, ZEAMX

Q: With `Nc1c(F)c(-c2ccc([N+](=O)[O-])cc2)nc(C(=O)O)c1Cl` [Compound 31, 4-amino-3-chloro-5-fluoro-6-(4-nitrophenyl)picolinic acid] as the compound, how does the melting point read?
A: 180 to 181 °C

Q: And the pest or weed control at 70 g/ha [1, 3]?
A: 0 to 29%

Q: And the pest or weed control at 140 g/ha [1, 3]?
A: 0 to 29%

Q: What about the pest or weed control at 70 g/ha [1, 4] of the same compound?
A: 95 to 100%

Q: And the pest or weed control at 140 g/ha [1, 4]?
A: 95 to 100%

Q: And the pest or weed control at 70 g/ha [1, 5]?
A: 30 to 44%

Q: And the pest or weed control at 140 g/ha [1, 5]?
A: 45 to 59%

Q: What about the pest or weed control at 70 g/ha [1, 6] of the same compound?
A: 60 to 74%

Q: And the pest or weed control at 140 g/ha [1, 6]?
A: 85 to 94%

Q: What about the pest or weed control at 70 g/ha [1, 7] of the same compound?
A: 0 to 29%

Q: What about the pest or weed control at 140 g/ha [1, 7] of the same compound?
A: 0 to 29%

Q: And the pest or weed control at 70 g/ha [1, 8]?
A: 95 to 100%

Q: And the pest or weed control at 140 g/ha [1, 8]?
A: 95 to 100%

Q: What about the pest or weed control at 70 g/ha [1, 9] of the same compound?
A: 0 to 29%

Q: What about the pest or weed control at 140 g/ha [1, 9] of the same compound?
A: 0 to 29%

Q: And the pest or weed control at 70 g/ha [2, 10]?
A: 0 to 29%

Q: And the pest or weed control at 140 g/ha [2, 10]?
A: 0 to 29%

Q: What about the pest or weed control at 70 g/ha [2, 11] of the same compound?
A: 60 to 74%

Q: And the pest or weed control at 140 g/ha [2, 11]?
A: 60 to 74%

Q: What about the pest or weed control at 70 g/ha [2, 12] of the same compound?
A: 75 to 84%

Q: What about the pest or weed control at 140 g/ha [2, 12] of the same compound?
A: 85 to 94%

Q: What about the pest or weed control at 70 g/ha [2, 13] of the same compound?
A: 0 to 29%

Q: And the pest or weed control at 140 g/ha [2, 13]?
A: 0 to 29%

Q: And the pest or weed control at 70 g/ha [2, 14]?
A: 0 to 29%

Q: And the pest or weed control at 140 g/ha [2, 14]?
A: 0 to 29%

Q: And the pest or weed control at 70 g/ha [2, 15]?
A: 0 to 29%

Q: And the pest or weed control at 140 g/ha [2, 15]?
A: 0 to 29%

Q: What about the pest or weed control at 70 g/ha [2, 16] of the same compound?
A: 0 to 29%

Q: What about the pest or weed control at 140 g/ha [2, 16] of the same compound?
A: 0 to 29%

Q: What about the pest or weed control at 70 g/ha [2, 17] of the same compound?
A: 0 to 29%

Q: And the pest or weed control at 140 g/ha [2, 17]?
A: 0 to 29%
